Measured values reported in patent US20050163879A1, “Composition for preventing or treating dementia comprising a hydroxycinnamic acid derivative or an extract of a plant of genus Angelicae containing same” (Scigenic Co. Ltd. Biosynergen, Inc., priority 1999, published 2005).
Blank lines part the entries; values can stand above or below the compound they belong to.

Legend:
[1] = tested on: mice administered with β-amyloid (1-42); assay: Y-maze test in mice injected with β-amyloid (1-42) into the cerebral ventricle; type: in vivo, mouse; settings: for alternation behavior (%): compared with β-amyloid (1-42) only group
Procedure: (§1) The administration of β-amyloid (1-42) to a mouse was carried out in accordance with the method described by Laursen & Belknap (J. Pharmacol. Methods, 16, 355-357 (1986)). Specifically, 5 μl of phosphate-buffered saline containing 1.85 μg of β-amyloid (1-42) was put in a 50 μl Hamilton syringe fitted with a 26 gauge needle, the tip of the needle was inserted into the bregma of the mouse and then the β-amyloid (1-42) solution was administered thereto. Each mouse of a control group received an equal amount of β-amyloid (42-1) in place of β-amyloid (1-42). A passive avoidance test was carried out at days 1-2 (day 1: training, day 2: test) and a Y-maze test, at days 3-4 (day 3: training, day 4: test) after the administration.
Spontaneous alternation behavior of a mouse was examined by a Y-maze test in accordance with the method described in Starter et al., Psychopharmacology, 94, 491-495 (1988) as follows.
The Y-maze consisted of three arms shaped like Y. A test mouse was placed in one of the arms such that it faced the arm's terminal and allowed to roan freely through the three arms for […]. The number of alternation was determined by counting the number of occasions the mouse passed the three arms consecutively. Spontaneous alternation behavior was determined as the percentage of the alternation number based on the total number of arm entries.
Further, Y-maze tests were carried out employing the above-prepared mice as in Reference Example 3.
Forty 4- to 5-week old mice each weighing 20 to 25 g were divided into four groups of equal number. Decursinol was dissolved in corn oil, mixed with a mouse fodder, and the mice of two groups were provided with the resulting fodder for 4 weeks at a daily dose of 7.5 mg decursinol/kg or 15 mg decursinol/kg. The mice of the other two groups were provided with a normal mouse fodder containing an equal amount of corn oil as above for 4 weeks. Thereafter, the mice of one of the two normal fodder groups were administered, into their cerebral ventricle, with 1.85 μg of β-amyloid (42-1) (“control group”) and the mice of the remaining three groups, with β-amyloid (1-42) (Aβ1-42), as in Reference Example 1. Then, a passive avoidance test and a Y-maze test were carried out for each group of mice as in Reference Examples 2 and 3, respectively, and the data attained were averaged for each group.

OX-42 = assay: Immunohistochemical staining of OX-42 in pyriform cortex and amygdaloid nucleus one day after β-amyloid; type: in vivo, mouse; settings: 0.006% (w/v) ferulic acid in drinking water for 4 weeks, then β-amyloid (1-42); 1 day after; vs β-amyloid (1-42) only; FIGS. 8c and 8f
Procedure: 4- to 5-week old mice each weighing 20 to 25 g was divided into three groups. Ferulic acid was dissolved in water to a concentration of 0.006% (w/v), and the mice of one group were provided with the resulting solution instead of water for 4 weeks. The mice of other two groups were provided with normal drinking water for 4 weeks. Thereafter, the mice of one of two normal drinking water groups were administered, into their cerebral ventricle, with 1.85 μg of β-amyloid (42-1) (“control group”) and the mice of the remaining two groups, with β-amyloid (1-42) (β1-42), as in Reference Example 1.
One day after the administration of β-amyloid, each of the mice was anesthetized with sodium pentobarbital and its abdomen was incised. The mouse was fixed by passing 4% paraformaldehyde through its left ventricle and its brain was excised.
In accordance with the method described in Cho et al., J. Comp. Neurol., 369: 264-276 (1996), a section was prepared from the excised brain and immunohistochemical staining was carried out in order to stain […] in the pyriform cortex and the amygdaloid nucleus by employing 1:500 dilution of anti-OX-42 antibody (Halan (Sera-Lab)).

[2] = tested on: choline acetyltransferase (ChAT); assay: Immunohistochemical staining of ChAT in septal nucleus 5 days after β-amyloid; type: in vivo, mouse; settings: 0.006% (w/v) ferulic acid for 4 weeks, then β-amyloid (1-42), vs β-amyloid (1-42) only, FIG. 9c
Procedure: Three groups of mice were administered with ferulic acid and/or β-amyloid in accordance with the method of (1). 5 days after the administration of β-amyloid, immunohistochemical staining was carried out according to the method of (1) except for employing 1:750 dilution of anti-choline-acetyltransferase (ChAT) antibody (Chemicon) in order to stain CHAT, an enzyme for acetylcholine synthesis, in the septal nucleus wherein acetylcholine neurons are distributed.

mouse cerebral neurons = assay: β-amyloid (1-42)-induced leakage of lactate dehydrogenase (LDH) from primary mouse cortical culture; type: cell-based; settings: 100 μM ferulic acid 30 minutes before 25 μM β-amyloid (1-42); 24 and 48 hours; vs β-amyloid (1-42) group; FIG. 10
Procedure: In accordance with the method of Wie et al. (Neurosci. Lett., 225: 93-96 (1997)), glia was cultured from cells of the cerebral cortex of a mouse and neurons of mouse cerebrum were cultured by employing the glia as a substrate.
The culture of mouse cerebral neurons was divided into three groups. Neurons of one group received no treatment (control group). Neurons of the other two groups were treated with 25 μM of β-amyloid (1-42), and one of these two groups were treated with 100 μM of ferulic acid 30 minutes before the administration of β-amyloid (1-42).
The degree of damage in neurons was determined by measuring the concentration of lactate dehydrogenase (LDH), which was released from the damaged or disrupted neurons into the culture medium, in accordance with the method of Wie et al. Samples of the culture medium were taken at 24 and 48 hours after the administration of β-amyloid (1-42), respectively, and their LDH concentrations were measured with a microplate reader.

[3] = tested on: mice administered with β-amyloid (1-42); assay: Passive avoidance test in mice injected with β-amyloid (1-42) into the cerebral ventricle; type: in vivo, mouse; settings: for dementia-preventive effect in passive avoidance test: FIGS. 7A and 7B
Procedure: as §1
In order to examine the learning and memory-retention ability of a mouse, a passive avoidance test was carried out in accordance with the method described in Song et al., J. Neurochem., 71, 875-878 (1998), as follows.
A passive avoidance case equipped with a light room and a dark room was prepared, the floor of the dark room being designed to deliver an electrical shock to a test animal. First, a mouse was put in the light room and, upon entering the dark room, it received an electrical shock at 0.25 mA for 1 sec. Twenty-four hours after the training, the mouse was put in the light room again and the time it took to enter the dark room was measured as a passive avoidance time. The maximum time was set at 300 sec., i.e., in case when the mouse took more than 300 sec. to enter the dark room, the passive avoidance time was determined to be 300 sec.
Forty 4- to 5-week old mice each weighing 20 to 25 g were divided into four groups of equal number. The Angelicae gigas Nakai extract prepared in Example 1 was dissolved in water to concentrations of 0.08% (w/v) and 0.1% (w/v), respectively, […] the solution/mouse. The mice of the other two groups were provided with normal drinking water for 4 weeks. Thereafter, the mice of one of the two normal drinking water groups were administered into their cerebral ventricle with 1.85 μg of β-amyloid (42-1) (“control group”) and the mice of the remaining three groups, with β-amyloid (1-42) (Aβ1-42), as in Reference Example 1. Then, a passive avoidance test was carried out for each group of mice as in Reference Example 2 and the data attained were averaged for each group.
Fifty 4- to 5-week old mice each weighing 20 to 25 g were divided into five groups by equal number. Ferulic acid was dissolved in water to concentrations of 0.002% (w/v), 0.004% (w/v) and 0.006% (w/v), respectively, […] the solution/mouse. The mice of the other two groups were provided with normal drinking water for 4 weeks. Thereafter, the mice of one of two normal drinking water groups were administered into their cerebral ventricle with 1.85 μg of β-amyloid (42-1) (“control group”) and the mice of the remaining four groups, with β-amyloid (1-42)(Aβ1-42), as in Reference Example 1. Then, a passive avoidance test was carried out for each group of mice as in Reference Example 2 and the data attained were averaged for each group.
Forty 4- to 5-week old mice each weighing 20 to 25 g were divided into four groups of equal number. Decursinol was dissolved in corn oil, mixed with a mouse fodder, and the mice of two groups were provided with the resulting fodder for 4 weeks at a daily dose of 7.5 mg decursinol/kg or 15 mg decursinol/kg. […]

LDH concentration in culture medium (mouse cerebral neurons): much lower
Compound: COc1cc(/C=C/C(=O)O)ccc1O [ferulic acid]
number of arm entries (measure of spontaneous movement) ([1]; ferulic acid, period of administration varied, FIG. 4B): nearly the same for all groups | alternation behavior (%) ([1]; ferulic acid, period of administration varied, FIG. 4A): higher and increased in proportion to the period of administration | OX-42 staining in pyriform cortex and amygdaloid nucleus (OX-42): much less pronounced | ChAT staining in septal nucleus [2]: the decrease was suppressed | passive avoidance response time ([3]; 0.006& (w/v) ferulic acid for 1, 2, 3 and 4 weeks, FIG. 3B): becomes increasingly higher with the period of administration | decrease in passive avoidance response time ([3]; ferulic acid 0.002%, 0.004% and 0.006% (w/v) in drinking water for 4 weeks before Aβ1-42, FIG. 3A): prevented dose-dependently | dementia-preventive effect in passive avoidance test ([3]; ferulic acid alone, low amount: 0.002% (w/v) or 0.003% (w/v)): no dementia-preventive effect

Compound: CC1(C)Oc2cc3oc(=O)ccc3cc2C[C@@H]1O [decursinol]
number of arm entries (measure of spontaneous movement) ([1]; decursinol 7.5 mg/kg or 15 mg/kg daily for 4 weeks, FIG. 6C): nearly the same for all groups | alternation behavior (%) ([1]; decursinol 7.5 mg/kg or 15 mg/kg daily for 4 weeks, FIG. 6B): higher and increased dose-dependently | dementia-preventive effect in passive avoidance test ([3]; decursinol alone, low amount: 2 mg/kg or 3 mg/kg): no dementia-preventive effect | decrease in passive avoidance response time due to β-amyloid (1-42) ([3]; decursinol in fodder, 7.5 mg/kg or 15 mg/kg daily for 4 weeks, FIG. 6A): prevented
